This is an account of results in US8648066B2 (Exelixis, Inc., priority 2009, dated 2014).

SMILES strings stand for the structures.

A word on the IC50: it is the concentration that gives 50% inhibition.

For the experiment, the target named is mTOR/GbL/Raptor (mTORC1) (Homo sapiens, UniProt P42345). Put plainly: mTOR/GbL/Raptor (mTORC1) ELISA assay. The following applies: phosphorylation of 4E-BP1; 0.2 nM mTORC1, 10 μM ATP; read-out: IC50 in this assay (mTORC1 ELISA). In kind it is biochemical. The procedure:
The measurement of mTORC1 enzyme activity was performed in an ELISA assay format following the phosphorylation of 4E-BP1 protein. All experiments were performed in the 384-well format. Generally, 0.5 μL DMSO containing varying concentrations of the test Compound was mixed with 15 μL enzyme solution. Kinase reactions were initiated with the addition of 15 μL of substrates-containing solution. The assay conditions were as follows; 0.2 nM mTORC1, 10 μM ATP and 50 nM NHis-tagged 4E-BP1 in 20 mM Hepes, pH 7.2, 1 mM DTT, 50 mM NaCl, 10 mM MnCl2, 0.02 mg/mL BSA, 0.01% CHAPS, 50 mM β-glycerophosphate. Following an incubation of 120 minutes at ambient temperature, 20 μL of the reaction volume was transferred to a Ni-Chelate-coated 384-well plate. The binding step of the 4E-BP1 protein proceeded for 60 minutes, followed by washing 4 times each with 50 μL of Tris-buffered saline solution (TBS). Anti-phospho-4E-BP1 rabbit-IgG (20 μL, 1:5000) in 5% BSA-TBST (0.2% Tween-20 in TBS) was added and further incubated for 60 minutes. Incubation with a secondary HRP-tagged anti-IgG was similarly performed after washing off the primary antibody (4 washes of 50 μL). Following the final wash step with TBST, 20 μL of SuperSignal ELISA Femto (Pierce Biotechnology) was added and the luminescence measured using an EnVision plate reader.
For `Cc1nc2ccc(-c3ccc4c(c3)CN(c3ncnc(C(C)C)c3C)CCO4)cc2[nH]1` [Example 62, 7-(2-methyl-1H-benzimidazol-6-yl)-4-[5-methyl-6-(1-methylethyl)pyrimidin-4-yl]-2,3,4,5-tetrahydro-1,4-benzoxazepine], the IC50 fell in the range of 250 to 1000 nM.

Regarding `Cc1nc2ccc(-c3ccc4c(c3)CN(c3ncnc5c3CCC(C)C5)CCO4)cc2[nH]1` (stereo not drawn) [Example 63, 7-(2-methyl-1H-benzimidazol-6-yl)-4-(7-methyl-5,6,7,8-tetrahydroquinazolin-4-yl)-2,3,4,5-tetrahydro-1,4-benzoxazepine], the IC50 was 50 to 250 nM.

For the compound `CCc1c(C)ncnc1N1CCOc2ccc(-c3ccc4nc(C)[nH]c4c3)cc2C1` [Example 64, 4-(5-ethyl-6-methylpyrimidin-4-yl)-7-(2-methyl-1H-benzimidazol-6-yl)-2,3,4,5-tetrahydro-1,4-benzoxazepine], the IC50 lay within 50 to 250 nM.

On to `Cc1nc2ccc(-c3ccc4c(c3)CN(c3ncnc5c3CC(C)(C)CC5)CCO4)cc2[nH]1` [Example 65, 4-(6,6-dimethyl-5,6,7,8-tetrahydroquinazolin-4-yl)-7-(2-methyl-1H-benzimidazol-6-yl)-2,3,4,5-tetrahydro-1,4-benzoxazepine], for which the IC50 is no more than 10 nM.

As to `Cc1nc2ccc(-c3ccc4c(c3)CN(c3ncnc(C)c3C(C)C)CCO4)cc2[nH]1` [Example 66, 7-(2-methyl-1H-benzimidazol-6-yl)-4-[6-methyl-5-(1-methylethyl)pyrimidin-4-yl]-2,3,4,5-tetrahydro-1,4-benzoxazepine], the IC50 was no more than 10 nM.

On to `CCC1CCc2ncnc(N3CCOc4ccc(-c5ccc6nc(C)[nH]c6c5)cc4C3)c2C1` (stereo not drawn) [Example 68, 4-(6-ethyl-5,6,7,8-tetrahydroquinazolin-4-yl)-7-(2-methyl-1H-benzimidazol-6-yl)-2,3,4,5-tetrahydro-1,4-benzoxazepine], for which the IC50 lay within 10 to 50 nM.

On to `Cc1nc2ccc(-c3ccc4c(c3)CN(c3ncnc(C)c3CC3CC3)CCO4)cc2[nH]1` [Example 69, 4-[5-(cyclopropylmethyl)-6-methylpyrimidin-4-yl]-7-(2-methyl-1H-benzimidazol-6-yl)-2,3,4,5-tetrahydro-1,4-benzoxazepine], for which the IC50 lay within 50 to 250 nM.

Regarding `CCc1ncnc(N2CCOc3ccc(-c4ccc5nc(C)[nH]c5c4)cc3C2)c1Cc1ccccc1` [Example 70, 4-[6-ethyl-5-(phenylmethyl)pyrimidin-4-yl]-7-(2-methyl-1H-benzimidazol-6-yl)-2,3,4,5-tetrahydro-1,4-benzoxazepine], the concentration for half-maximal inhibition (IC50) was no more than 10 nM.

Turning to `Cc1nc2ccc(-c3ccc4c(c3)CN(c3ncnc(C)c3Cc3cccc(F)c3)CCO4)cc2[nH]1` [Example 72, 4-{5-[(3-fluorophenyl)methyl]-6-methylpyrimidin-4-yl}-7-(2-methyl-1H-benzimidazol-6-yl)-2,3,4,5-tetrahydro-1,4-benzoxazepine], the half-maximal inhibitory concentration (IC50) was no more than 10 nM.

As to `Cc1nc2ccc(-c3ccc4c(c3)CN(c3ncnc(C)c3Cc3cccc(Cl)c3)CCO4)cc2[nH]1` [Example 73, 4-{5-[(3-chlorophenyl)methyl]-6-methylpyrimidin-4-yl}-7-(2-methyl-1H-benzimidazol-6-yl)-2,3,4,5-tetrahydro-1,4-benzoxazepine], the IC50 was no more than 10 nM.

With `Cc1nc2ccc(-c3ccc4c(c3)CN(c3ncnc(C)c3C(C)c3ccccc3)CCO4)cc2[nH]1` (stereo not drawn) [Example 74], the IC50 was no more than 10 nM.

Consider `Cc1nc2ccc(-c3ccc4c(c3)CN(c3ncnc5c3CC(C)C5)CCO4)cc2[nH]1` (stereo not drawn) [Example 76, 7-(2-methyl-1H-benzimidazol-6-yl)-4-(6-methyl-6,7-dihydro-5H-cyclopenta[d]pyrimidin-4-yl)-2,3,4,5-tetrahydro-1,4-benzoxazepine], for which the IC50 fell in the range of 50 to 250 nM.

Take `Cc1nc2ccc(-c3ccc4c(c3)CN(c3ncnc(Nc5ccccc5)c3C)CCO4)cc2[nH]1` [Example 77, 5-methyl-6-[7-(2-methyl-1H-benzimidazol-6-yl)-2,3-dihydro-1,4-benzoxazepine-4(5H)-yl]-N-phenylpyrimidin-4-amine]: the IC50 lay within 1000 to 2000 nM.

Take `Cc1ccc(Cc2c(C)ncnc2N2CCOc3ccc(-c4ccc5nc(C)[nH]c5c4)cc3C2)cc1` [Example 78, 7-(2-methyl-1H-benzimidazol-6-yl)-4-{6-methyl-5-[(4-methylphenyl)methyl]pyrimidin-4-yl}-2,3,4,5-tetrahydro-1,4-benzoxazepine]: the IC50 was no more than 10 nM.

For the compound `Cc1nc2ccc(-c3ccc4c(c3)CN(c3ncnc(C)c3Cc3ccc(F)cc3)CCO4)cc2[nH]1` [Example 79, 4-{5-[(4-fluorophenyl)methyl]-6-methylpyrimidin-4-yl}-7-(2-methyl-1H-benzimidazol-6-yl)-2,3,4,5-tetrahydro-1,4-benzoxazepine], the IC50 is no more than 10 nM.

In the case of `Cc1nc2ccc(-c3ccc4c(c3)CN(c3ncnc(C)c3Cc3ccc(Cl)cc3)CCO4)cc2[nH]1` [Example 80, 4-{5-[(4-chlorophenyl)methyl]-6-methylpyrimidin-4-yl}-7-(2-methyl-1H-benzimidazol-6-yl)-2,3,4,5-tetrahydro-1,4-benzoxazepine], the 50% inhibitory concentration (IC50) is no more than 10 nM.

Regarding `COc1cccc(Cc2c(C)ncnc2N2CCOc3ccc(-c4ccc5nc(C)[nH]c5c4)cc3C2)c1` [Example 81, 7-(2-methyl-1H-benzimidazol-6-yl)-4-(6-methyl-5-{[3-(methyloxy)phenyl]methyl}pyrimidin-4-yl)-2,3,4,5-tetrahydro-1,4-benzoxazepine], the concentration for half-maximal inhibition (IC50) fell in the range of 10 to 50 nM.

As for `Cc1cccc(Cc2c(C)ncnc2N2CCOc3ccc(-c4ccc5nc(C)[nH]c5c4)cc3C2)c1` [Example 82, 7-(2-methyl-1H-benzimidazol-6-yl)-4-{6-methyl-5-[(3-methylphenyl)methyl]pyrimidin-4-yl}-2,3,4,5-tetrahydro-1,4-benzoxazepine], the IC50 fell in the range of 10 to 50 nM.

As to `Cc1nc2ccc(-c3ccc4c(c3)CN(c3ncnc(C)c3Cc3cc(F)cc(Cl)c3)CCO4)cc2[nH]1` [Example 83, 4-{5-[(3-chloro-5-fluorophenyl)methyl]-6-methylpyrimidin-4-yl}-7-(2-methyl-1H-benzimidazol-6-yl)-2,3,4,5-tetrahydro-1,4-benzoxazepine], the IC50 is no more than 10 nM.

Consider `COc1ccccc1Cc1c(C)ncnc1N1CCOc2ccc(-c3ccc4nc(C)[nH]c4c3)cc2C1` [Example 84, 7-(2-methyl-1H-benzimidazol-6-yl)-4-(6-methyl-5-{[2-(methyloxy)phenyl]methyl}pyrimidin-4-yl)-2,3,4,5-tetrahydro-1,4-benzoxazepine], for which the IC50 fell in the range of 10 to 50 nM.

On to `Cc1nc2ccc(-c3ccc4c(c3)CN(c3ncnc(C)c3Cc3ccccc3C)CCO4)cc2[nH]1` [Example 86, 7-(2-methyl-1H-benzimidazol-6-yl)-4-{6-methyl-5-[(2-methylphenyl)methyl]pyrimidin-4-yl}-2,3,4,5-tetrahydro-1,4-benzoxazepine], for which the IC50 fell in the range of 10 to 50 nM.

Consider `Cc1nc2ccc(-c3ccc4c(c3)CN(c3ncnc(C)c3Cc3ccc(F)c(F)c3)CCO4)cc2[nH]1` [Example 89, 4-{5-[(3,4-difluorophenyl)methyl]-6-methylpyrimidin-4-yl}-7-(2-methyl-1H-benzimidazol-6-yl)-2,3,4,5-tetrahydro-1,4-benzoxazepine], for which the IC50 was no more than 10 nM.

For the compound `Cc1nc2ccc(-c3ccc4c(c3)CN(c3ncnc(C)c3Cc3ccc(C(F)(F)F)cc3)CCO4)cc2[nH]1` [Example 90, 7-(2-methyl-1H-benzimidazol-6-yl)-4-(6-methyl-5-{[4-(trifluoromethyl)phenyl]methyl}pyrimidin-4-yl)-2,3,4,5-tetrahydro-1,4-benzoxazepine], the IC50 is 10 to 50 nM.

In the case of `Cc1nc2ccc(-c3ccc4c(c3)CN(c3ncnc(C)c3Cc3cc(F)cc(F)c3)CCO4)cc2[nH]1` [Example 91, 4-(5-[(3,5-difluorophenyl)methyl]-6-methylpyrimidin-4-yl}-7-(2-methyl-1H-benzimidazol-6-yl)-2,3,4,5-tetrahydro-1,4-benzoxazepine], the IC50 lay within 10 to 50 nM.

As to `Cc1nc2ccc(-c3ccc4c(c3)CN(c3ncnc(C)c3Cc3cccc(C(F)(F)F)c3)CCO4)cc2[nH]1` [Example 92, 7-(2-methyl-1H-benzimidazol-6-yl)-4-(6-methyl-5-{[3-(trifluoromethyl)phenyl]methyl}pyrimidin-4-yl)-2,3,4,5-tetrahydro-1,4-benzoxazepine], the IC50 lay within 250 to 1000 nM.

As for `Cc1nc2ccc(-c3ccc4c(c3)CN(c3ncnc(C)c3Cc3ccc(Cl)c(N(C)C)c3)CCO4)cc2[nH]1` [Example 93, 2-chloro-N,N-dimethyl-5-({4-methyl-6-[7-(2-methyl-1H-benzimidazol-6-yl)-2,3-dihydro-1,4-benzoxazepin-4(5H)-yl]pyrimidin-5-yl}methyl)aniline], the IC50 is no more than 10 nM.

Turning to `Cc1nc2ccc(-c3ccc4c(c3)CN(c3ncnc(C)c3C(C)c3cccc(F)c3)CCO4)cc2[nH]1` (stereo not drawn) [Example 94, 4-{5-[1-(3-fluorophenyl)ethyl]-6-methylpyrimidin-4-yl}-7-(2-methyl-1H-benzimidazol-6-yl)-2,3,4,5-tetrahydro-1,4-benzoxazepine], the IC50 was no more than 10 nM.
